Laboratory results published in PMC9256669, “Monomethyl auristatin antibody and peptide drug conjugates for trimodal cancer chemo-radio-immunotherapy” (Nature Communications, 2022).
Where “and” joins values, the source holds several entries; their conditions need not be identical. Equal values may be shown once. Non-standard residues stand in square brackets, D forms with d. Residues, ends and D or L forms follow the SMILES beside them. *: point of attachment. Dolaproine = CO[C@@H]([C@@H]1CCCN1)[C@@H](C)C(=O)O; Dil = CC[C@H](C)[C@H](NC)[C@@H](CC(=O)O)OC; X1 = C[C@@H](N*)[C@@H](O)c1ccccc1; NMeV = CN[C@H](C(=O)O)C(C)C

Columns and labels:
[1] = Mouse body weight (safety of MMAE with IR, with or without anti-PD-1); conditions: ACPP-MMAE and IR
From the text: LL/2 cells treated with dose range of MMAE overnight and then […] in drug free media for 7-10 days to allow for visualized colonies to form.
Statistical significances calculated using one-way ANOVA with Tukey’s multiple comparisons test. 0.9 b) Cell cycle analysis […]
of MMAE treated LL/2 cells, mean ± SD, n=2. […]
experiments. c) Clonogenic survival of LL/2 cells treated with MMAE and 2 Gy (SF2). Cell Days viability normalized to non-irradiated cells for each drug condition and plotted as mean fractional survival ± SEM, n=6. Statistical significances calculated using one-way ANOVA with Sidak’s multiple comparisons test. d) Tumor volumes (n=10) and mouse body weights (n=5) of mice from experiments in Fig. 3e. Tumor volumes plotted as mean volume of surviving mice ± SEM.
Mouse body weight were normalized to each mouse’s weight on day 0, i.e. tumor implantation.
Data plotted as mean fractional body weight ± SEM. e) Mouse body weights of mice (n=5) from experiments in Fig. 4h were normalized to each mouse’s weight on day of tumor implantation.
Data is plotted as individual normalized body weights. f) Mouse body weights of mice from experiments in Fig. 5e, f were normalized to each mouse’s weight on day of tumor implantation.
Source data are provided in Source Data file.

[2] = test system: CAL27 WT and CAL27 PIK3CA H1047R cells; assay: Cell culture MMAE sensitivity of isogenic cell lines; format: cell-based, human; conditions: CAL27 WT vs CAL27 PIK3CA H1047R
From the text: Specific Comment 3: “Line 266: fig 3e: the **** significance; is this IR+MMAE vs IR, or vs MMAE? Please […]
Response: Reviewer #2 raised a similar comment, (Rev #2, Comment 5). As mentioned, the statistical analysis in our original submission compared all 4 experimental groups. Based on Reviewers #2 & #4 […]
Importantly for scientific rigor & reproducibility , we would highlight that MMAE ± IR tumor response studies in syngeneic mice were replicated […]
Specific Comment 4: “Experiments with RAG mice showing that CD8+ T-cells are involved in the response to MMAE+IR are intriguing. A mechanistic explanation is however lacking. If T-cells are crucial for tumor control under IR, why is there such good response in CAL27 xenografts in nude mice with monotherapy only?” […]
adaptive immunity on durable tumor control of syngeneic tumors treated with MMAE + IR. Using depleting […]
mediated durable tumor control of MMAE radiosensitization . […]
Response: In cell culture testing, MOC1 and MOC2 cells were sensitive to MMAE and CDX3379-MMAE as measured by Alamar Blue assay. For Alamar Blue assay cytotoxicity, we measured cell viability at 72 hr of […]

Detroit 562 = assay: Cytotoxicity, Alamar Blue assay; format: cell-based, human; conditions: Detroit 562, 72 h drug exposure, one value per biological replicate, read-out: IC50 values
Description: (§1) Murine colorectal (MC38 (ENH204-FP)) cancer cell lines were obtained from Kerafast. Murine head and neck MOC1 and MOC2 were generously provided by Dr. R. Uppaluri. CAL27 PIK3CA H1047R expressing cells and 4MOSC1 cells were generated in Dr. Gutkind’s laboratory and previously characterized[42],[55]. […] MC38 cells were cultured in DMEM supplemented with 10% FBS, 1 mM sodium pyruvate (Gibco), 1% non-essential amino acids (Gibco), and 10 mM HEPES (Gibco). MOC1 and MOC2 cells were cultured in IMDM (Lonza)/F-12K nutrient mixture at a 2:1 mixture with 5% FBS, 5 ng/ml EGF (EMD Millipore), 400 ng/ml hydrocortisone (Sigma), and […] insulin (Sigma). On receipt, each cell line was expanded, cryopreserved as low passage stocks, and routinely tested for mycoplasma. Cisplatin (Enzo Biosciences), paclitaxel (Sigma), and MMAE (Concortis) were reconstituted in DMSO. Clinical-grade CDX3379 was provided by Celldex. Clinical grade cetuximab (Erbitux, Lilly Medical) was obtained from UCSD Moores Cancer Center Pharmacy.
(§2) Cells were plated in 96-well plates and exposed to a drug concentration range for 72 h. Alamar Blue was added to the cells and allowed to incubate for 2–4 h at 37 °C. Plates were analyzed using a plate reader with fluorescence measured at 560 nm. Fractional survival was normalized to untreated control cell fluorescent values. Drug IC50 was calculated using Prism software (GraphPad, La Jolla, CA). Cell viability, cytotoxicity and apoptosis were also measured by ApoTox-Glo Triplex Assay (Promega).

CAL27 = assay: Cytotoxicity, Alamar Blue assay; format: cell-based, human; conditions: 72 h drug exposure, one value per biological replicate, read-out: IC50 values
Description: as §1, §2

Row | Molecule | adverse effects on mouse well-being by body weight [1] | MMAE sensitivity of isogenic cell lines [2] | IC50 (Detroit 562) | IC50 (CAL27)
1 | cyclo(RGD)fc-MC-HN-peg8-e9-oPLGC(Me)AG-r9-c-(MC-VC-PABC-MMAE)-CONH2 [ACPP-MMAE] | no adverse effects |  |  | 
2 | CC[C@H](C)[C@@H]([C@@H](CC(=O)N1CCC[C@H]1[C@H](OC)[C@@H](C)C(=O)N[C@H](C)[C@@H](O)c1ccccc1)OC)N(C)C(=O)[C@@H](NC(=O)[C@@H](NC)C(C)C)C(C)C [MMAE, monomethyl auristatin E] (H-[NMeV]V[Dil][Dolaproine]-X1) |  | did not see an appreciable difference in MMAE sensitivity between the isogenic cell lines | 253 pM and 250 pM and 189 pM and 195 pM | 0.235 nM and 0.239 nM (2×) and 0.237 nM and 0.177 nM and 0.185 nM
